Measurements as given in US8367873B2, “Phenyl-substituted bicyclooctane-1,3-dione derivatives” (Bayer Cropscience AG, priority 2008, dated 2013).

How the values were obtained:
Type in all cases: in vivo
[1] = test system: monocotylidonous and dicotylidonous weed and crop plants; assay: Herbicidal pre-emergence action (other test plants); conditions: pre-emergence method, 80 g/ha, greenhouse, visual assessment vs untreated controls
Procedure, shortened: (§1)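 Seeds sown in sandy loam and covered with soil; WP-formulated compounds applied as aqueous suspension (600 l/ha water, 0.2% wetting agent) to the soil surface at various rates. Greenhouse-grown; emergence damage scored visually after three weeks versus untreated controls (0% = like control, 100% = plants dead).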

[2] = test system: monocotylidonous and dicotylidonous weed and crop plants; assay: Herbicidal post-emergence action (other test plants); conditions: post-emergence method, 80 g/ha
Procedure, shortened: (§2)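 Visual % herbicidal effect vs untreated controls (100% = plants dead, 0% = as control), ~3 wk after spraying. Plants sown in sandy loam, greenhouse-grown, treated at one-leaf stage (2–3 wk post-sowing). WP formulations, 600 l/ha water + 0.2% wetting agent, various doses.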

Echinocloa crus-galli [3] = assay: Herbicidal post-emergence action; conditions: post-emergence method, 80 g/ha
Procedure, shortened: as §2

Setaria viridis [4] = assay: Herbicidal post-emergence action; conditions: post-emergence method, 80 g/ha
Procedure, shortened: as §2

Lolium multiflorum [5] = assay: Herbicidal post-emergence action; conditions: post-emergence method, 80 g/ha
Procedure, shortened: as §2

Alopecurus myosuroides [6] = assay: Herbicidal post-emergence action; conditions: post-emergence method, 80 g/ha
Procedure, shortened: as §2

Echinocloa crus-galli [7] = assay: Herbicidal pre-emergence action; conditions: pre-emergence method, 80 g/ha, greenhouse, visual assessment vs untreated controls
Procedure, shortened: as §1

Setaria viridis [8] = assay: Herbicidal pre-emergence action; conditions: pre-emergence method, 80 g/ha, greenhouse, visual assessment vs untreated controls
Procedure, shortened: as §1

Lolium multiflorum [9] = assay: Herbicidal pre-emergence action; conditions: pre-emergence method, 80 g/ha, greenhouse, visual assessment vs untreated controls
Procedure, shortened: as §1

Alopecurus myosuroides [10] = assay: Herbicidal pre-emergence action; conditions: pre-emergence method, 80 g/ha, greenhouse, visual assessment vs untreated controls
Procedure, shortened: as §1

Row | SMILES | herbicidal effect AVEFA [1] | herbicidal effect against AVEFA (Avena fatua) [2] | herbicidal effect against ECHCG (Echinochloa crus-galli) (Echinocloa crus-galli [3]) | herbicidal effect against SETVI (Setaria viridis) (Setaria viridis [4]) | herbicidal effect against LOLMU (Lolium multiflorum) (Lolium multiflorum [5]) | herbicidal effect against ALOMY (Alopecurus myosuroides) (Alopecurus myosuroides [6]) | herbicidal effect ECHCG (Echinocloa crus-galli [7]) | herbicidal effect SETVI (Setaria viridis [8]) | herbicidal effect LOLMU (Lolium multiflorum [9]) | herbicidal effect ALOMY (Alopecurus myosuroides [10])
1 | C=C1CC2C(=O)C(c3c(C)cc(C)cc3C)=C(OC(=O)OC)C2C1 (racemic) [I-c-46] | 50% | 0% | 80% | 90% | 90% | 40% | 80% | 80% | 70% | 80%
2 | CCc1cc(C)cc(C)c1C1=C(O)C2CC3(COC(C)(C)O3)CC2C1=O (centres unmarked) [I-a-62] | 40% | 80% | 100% | 90% | 100% | 100% | 100% | 90% | 100% | 100%
3 | C=C1CC2C(=O)C(c3c(C)cc(C)cc3OC)=C(OC(=O)OCC)C2C1 (racemic) [I-c-61] | 60% | 0% | 90% | 90% | 70% | 40% | 90% | 90% | 50% | 70%
4 | CCc1cc(C)cc(CC)c1C1=C(O)C2CC3(COC(C)O3)CC2C1=O (mixture of isomers) [I-a-7] | 80% | 60% | 100% | 90% | 100% | 90% | 70% | 70% | 90% | 100%
5 | CCOC(=O)OC1=C(c2c(CC)cc(C)cc2CC)C(=O)[C@@H]2CC3(C[C@H]12)OCC=CCO3 (relative stereo) [I-c-11] | 70% | 80% | 100% | 90% | 90% | 80% | 100% | 90% | 90% | 90%
6 | CCc1cc(C)cc(CC)c1C1=C([O-])C2CC3(CC2C1=O)OCC(OCc1ccccc1)CO3.[Na+] (centres unmarked) [I-f-16] | 80% | 100% | 100% | 100% | 100% | 100% | 60% | 90% | 90% | 80%
7 | Cc1cc(C)c(C2=C(OC(=O)C(C)(C)CCl)C3CC4(COC(C)(C)O4)CC3C2=O)c(C)c1 (mixture of isomers) [I-b-51] | 30% | 0% | 100% | 40% | 60% | 90% | 30% | 0% | 70% | 80%
8 | CCc1cc(C)cc(CC)c1C1=C(OC(=O)COC)C2CC3(CC2C1=O)OCCCO3 (centres unmarked) [I-b-28] | 50% | 100% | 100% | 100% | 100% | 100% | 100% | 70% | 100% | 90%
9 | CCc1cc(C)cc(C)c1C1=C(O)C2CC3(CC2C1=O)OCCO3 (centres unmarked) [I-a-57] | 60% | 100% | 100% | 100% | 100% | 100% | 100% | 90% | 100% | 80%
10 | Cc1cc(C)c(C2=C([O-])C3CC4(CC3C2=O)OCC(C)CO4)c(C)c1.[Na+] (centres unmarked) [I-f-9] | 50% | 90% | 80% | 100% | 100% | 80% | 60% | 50% | 100% | 30%
11 | CCc1cc(C)cc(CC)c1C1=C(OC(=O)OC)C2CC3(CC2C1=O)OCC=CCO3 (centres unmarked) [I-c-21] | 70% | 100% | 100% | 100% | 100% | 90% | 100% | 100% | 100% | 90%
12 | CCOC(=O)OC1=C(c2c(C)cc(C)cc2OC)C(=O)C2CC3(CC12)OCCO3 (racemic) [I-c-64] | 70% | 80% | 100% | 100% | 100% | 80% | 50% | 70% | 100% | 60%
13 | C=C1CC2C(=O)C(c3c(CC)cc(C)cc3CC)=C([O-])C2C1.[Na+] (centres unmarked) [I-f-21] | 70% | 80% | 100% | 100% | 100% | 80% | 100% | 90% | 100% | 90%
14 | CCc1cc(C)cc(C)c1C1=C(OC(=O)OC(C)C)C2CC3(COC(C)(C)O3)CC2C1=O (mixture of isomers) [I-c-78] | 90% | 0% | 90% | 80% | 100% | 100% | 100% | 80% | 100% | 100%
